The text below walks through data of patent publication US20140113898A1, “BISARYLSULFONE AND DIALKYLARYLSULFONE COMPOUNDS AS CALCIUM CHANNEL BLOCKERS” (Zalicus Pharmaceuticals Ltd., priority 2010, published 2014).

The target of one assay is T1, CaV2.2 (Homo sapiens, UniProt Q00975).
T1 construct: expressed in transfected cells; host or cells: unnamed doxycycline-inducible cell line
T1 sequence (Q00975 whole entry): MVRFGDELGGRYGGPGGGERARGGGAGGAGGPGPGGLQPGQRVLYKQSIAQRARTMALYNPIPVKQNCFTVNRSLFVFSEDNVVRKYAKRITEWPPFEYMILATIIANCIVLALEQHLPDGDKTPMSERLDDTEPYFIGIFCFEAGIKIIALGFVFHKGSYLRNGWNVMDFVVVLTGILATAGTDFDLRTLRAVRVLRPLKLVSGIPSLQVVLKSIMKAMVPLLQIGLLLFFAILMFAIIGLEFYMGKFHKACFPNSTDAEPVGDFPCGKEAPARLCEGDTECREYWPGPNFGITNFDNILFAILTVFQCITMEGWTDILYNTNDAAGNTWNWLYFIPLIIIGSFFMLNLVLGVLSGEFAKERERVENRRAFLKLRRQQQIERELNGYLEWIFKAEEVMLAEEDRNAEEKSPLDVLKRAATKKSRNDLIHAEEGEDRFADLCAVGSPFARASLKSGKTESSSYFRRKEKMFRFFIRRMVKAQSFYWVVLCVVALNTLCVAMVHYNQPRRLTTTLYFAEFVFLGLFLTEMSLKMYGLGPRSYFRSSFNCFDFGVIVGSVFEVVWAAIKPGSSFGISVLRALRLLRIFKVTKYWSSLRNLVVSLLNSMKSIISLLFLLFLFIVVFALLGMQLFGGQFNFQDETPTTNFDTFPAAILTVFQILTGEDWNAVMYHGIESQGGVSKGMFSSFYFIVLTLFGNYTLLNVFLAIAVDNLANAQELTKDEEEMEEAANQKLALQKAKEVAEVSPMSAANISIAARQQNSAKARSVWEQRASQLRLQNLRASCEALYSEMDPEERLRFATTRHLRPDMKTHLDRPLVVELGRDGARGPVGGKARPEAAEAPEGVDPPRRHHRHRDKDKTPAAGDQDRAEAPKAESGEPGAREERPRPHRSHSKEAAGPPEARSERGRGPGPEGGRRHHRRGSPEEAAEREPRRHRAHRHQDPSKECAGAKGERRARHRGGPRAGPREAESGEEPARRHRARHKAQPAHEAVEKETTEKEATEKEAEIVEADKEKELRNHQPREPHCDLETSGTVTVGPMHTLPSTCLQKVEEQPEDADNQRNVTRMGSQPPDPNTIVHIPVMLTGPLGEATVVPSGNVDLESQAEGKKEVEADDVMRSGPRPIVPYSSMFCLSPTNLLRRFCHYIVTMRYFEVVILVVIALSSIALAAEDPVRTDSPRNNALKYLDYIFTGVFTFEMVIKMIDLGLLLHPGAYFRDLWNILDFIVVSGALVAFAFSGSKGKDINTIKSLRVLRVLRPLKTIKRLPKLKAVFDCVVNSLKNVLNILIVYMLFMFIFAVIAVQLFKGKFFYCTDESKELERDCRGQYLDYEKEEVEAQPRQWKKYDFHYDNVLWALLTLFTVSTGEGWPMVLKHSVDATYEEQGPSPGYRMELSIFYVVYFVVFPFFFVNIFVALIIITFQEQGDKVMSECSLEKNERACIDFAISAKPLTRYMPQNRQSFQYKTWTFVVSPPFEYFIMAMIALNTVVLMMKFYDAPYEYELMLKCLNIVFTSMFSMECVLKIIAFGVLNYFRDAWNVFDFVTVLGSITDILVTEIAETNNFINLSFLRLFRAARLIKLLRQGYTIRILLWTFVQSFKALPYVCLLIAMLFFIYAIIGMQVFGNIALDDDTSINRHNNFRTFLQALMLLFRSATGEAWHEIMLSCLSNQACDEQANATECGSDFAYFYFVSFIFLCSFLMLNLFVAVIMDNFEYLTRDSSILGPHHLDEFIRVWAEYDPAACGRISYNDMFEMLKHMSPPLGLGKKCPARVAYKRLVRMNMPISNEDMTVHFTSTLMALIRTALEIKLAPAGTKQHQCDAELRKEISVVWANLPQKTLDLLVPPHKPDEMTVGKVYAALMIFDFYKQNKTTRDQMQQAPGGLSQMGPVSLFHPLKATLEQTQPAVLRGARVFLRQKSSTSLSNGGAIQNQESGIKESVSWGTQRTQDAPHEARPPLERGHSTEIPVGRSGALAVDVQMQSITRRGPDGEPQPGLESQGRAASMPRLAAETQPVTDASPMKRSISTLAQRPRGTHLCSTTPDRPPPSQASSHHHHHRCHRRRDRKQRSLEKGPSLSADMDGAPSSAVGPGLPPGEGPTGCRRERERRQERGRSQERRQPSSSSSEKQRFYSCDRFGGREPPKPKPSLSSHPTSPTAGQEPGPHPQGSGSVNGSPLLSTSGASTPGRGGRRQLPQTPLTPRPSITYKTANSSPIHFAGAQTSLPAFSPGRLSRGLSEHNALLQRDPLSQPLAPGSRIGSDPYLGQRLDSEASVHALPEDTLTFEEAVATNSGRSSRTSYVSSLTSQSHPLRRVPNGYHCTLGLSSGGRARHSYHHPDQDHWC
T1 sequence (P54284 whole entry partner): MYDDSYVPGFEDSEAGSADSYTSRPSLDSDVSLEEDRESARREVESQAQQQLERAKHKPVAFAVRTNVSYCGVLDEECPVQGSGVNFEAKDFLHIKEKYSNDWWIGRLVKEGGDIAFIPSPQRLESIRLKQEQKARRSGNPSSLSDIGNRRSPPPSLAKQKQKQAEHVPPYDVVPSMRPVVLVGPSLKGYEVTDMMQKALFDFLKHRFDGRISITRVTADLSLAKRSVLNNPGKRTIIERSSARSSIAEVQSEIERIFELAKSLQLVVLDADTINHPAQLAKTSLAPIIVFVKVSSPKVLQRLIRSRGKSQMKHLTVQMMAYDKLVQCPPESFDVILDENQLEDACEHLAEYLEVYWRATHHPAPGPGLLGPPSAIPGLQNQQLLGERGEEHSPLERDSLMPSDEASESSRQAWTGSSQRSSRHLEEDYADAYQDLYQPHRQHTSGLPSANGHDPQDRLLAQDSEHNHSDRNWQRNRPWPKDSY
T1 sequence (P54289 25-946 partner limits assumed): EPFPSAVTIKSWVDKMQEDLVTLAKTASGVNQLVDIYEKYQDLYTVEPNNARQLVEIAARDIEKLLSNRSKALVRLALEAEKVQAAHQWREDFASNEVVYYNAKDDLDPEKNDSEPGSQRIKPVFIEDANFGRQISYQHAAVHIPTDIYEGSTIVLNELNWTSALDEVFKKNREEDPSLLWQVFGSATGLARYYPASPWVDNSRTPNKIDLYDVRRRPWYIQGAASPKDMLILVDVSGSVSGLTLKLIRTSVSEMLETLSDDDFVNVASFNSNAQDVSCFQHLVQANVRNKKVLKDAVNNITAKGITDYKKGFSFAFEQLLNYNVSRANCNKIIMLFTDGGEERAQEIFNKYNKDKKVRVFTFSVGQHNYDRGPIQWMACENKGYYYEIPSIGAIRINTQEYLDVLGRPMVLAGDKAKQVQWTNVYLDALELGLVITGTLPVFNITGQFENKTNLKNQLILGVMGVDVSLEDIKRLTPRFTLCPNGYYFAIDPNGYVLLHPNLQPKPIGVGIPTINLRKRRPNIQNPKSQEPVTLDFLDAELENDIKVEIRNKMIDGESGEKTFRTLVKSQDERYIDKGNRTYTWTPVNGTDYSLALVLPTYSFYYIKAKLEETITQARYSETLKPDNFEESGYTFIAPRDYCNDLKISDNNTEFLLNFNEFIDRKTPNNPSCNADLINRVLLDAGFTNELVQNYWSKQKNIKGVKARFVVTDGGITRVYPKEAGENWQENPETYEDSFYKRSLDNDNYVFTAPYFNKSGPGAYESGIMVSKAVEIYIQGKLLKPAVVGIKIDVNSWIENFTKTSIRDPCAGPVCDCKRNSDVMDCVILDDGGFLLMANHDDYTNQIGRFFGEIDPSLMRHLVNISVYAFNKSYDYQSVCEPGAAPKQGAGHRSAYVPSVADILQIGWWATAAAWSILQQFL
T1 sequence (P54289 947-1103 partner limits assumed): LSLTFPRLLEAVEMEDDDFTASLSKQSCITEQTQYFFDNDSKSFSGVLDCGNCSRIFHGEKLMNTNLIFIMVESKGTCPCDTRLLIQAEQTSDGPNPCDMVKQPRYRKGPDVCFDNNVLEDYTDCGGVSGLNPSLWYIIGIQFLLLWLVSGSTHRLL
The assay can be described thus: High-throughput CaV2.2/Kir2.3 FLIPR fluorescent assay. Type of assay: cell-based. The conditions noted are these: Table 4; Fluo-4 FLIPR; closed or inactivated state not stated; read-out: FLIPR data CaV2.2. The procedure, abridged:
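IC50 was derived by logistic fitting of the FLIPR Fluo-4 signal recorded over 3 min after a 130 mM KCl stimulus. Before stimulation, cells (channel expression induced with doxycycline, 29 °C on assay day) were kept in pH 7.4 buffer with 2 mM KCl for the closed-state format or 12.5 mM KCl for the inactivated-state format.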
In the case of `CC(C)(N)C(=O)NCc1ccc(S(=O)(=O)c2cccc(C(F)(F)F)c2)cc1` [Compound 64, 2-amino-2-methyl-N-(4-((3-(trifluoromethyl)phenyl)sulfonyl)benzyl)propanamide], the IC50 was 4.07 µM. Consider `CS(=O)(=O)c1nc(C(F)(F)F)ccc1C(=O)NCc1ccccc1S(=O)(=O)c1cccc(C(F)(F)F)c1` [Compound 40], for which the IC50 was 7 µM. `O=C(CCC(F)(F)F)NCc1cc(S(=O)(=O)c2cccc(C(F)(F)F)c2)ccn1` [Compound 114, 4,4,4-trifluoro-N-((4-((3-(trifluoromethyl)phenyl)sulfonyl)pyridin-2-yl)methyl)butanamide]: the IC50 is 3.32 µM. On the same count and under the same terms, under `O=C(NCc1ccc(S(=O)(=O)c2cccc(C(F)(F)F)c2)cc1)C1CCCCN1` (centres unmarked) [Compound 59, N-(4-((3-(trifluoromethyl)phenyl)sulfonyl)benzyl)piperidine-2-carboxamide] stands 1 µM. `O=C(NCc1ccccc1S(=O)(=O)c1cccc(C(F)(F)F)c1)[C@@H]1CCCN1` [Compound 76, (S)-N-(2-((3-(trifluoromethyl)phenyl)sulfonyl)benzyl)pyrrolidine-2-carboxamide]: the IC50 was determined as 5.54 µM.

The assay is the same for the next values; noted with them: Table 5; Fluo-4 FLIPR; closed or inactivated state not stated; read-out: FLIPR data CaV2.2.
In the case of `CC(C)(CNC(=O)c1ccnc(Cl)c1)S(=O)(=O)c1cccc(C(F)(F)F)c1` [Compound 180, 2-chloro-N-(2-methyl-2-((3-(trifluoromethyl)phenyl)sulfonyl)propyl)isonicotinamide], the IC50 worked out at 3.96 µM. Regarding `CC(C)(CCNC(=O)c1ccc(C(F)(F)F)nc1S(C)(=O)=O)S(=O)(=O)c1cccc(C(F)(F)F)c1` [Compound 183, N-(3-methyl-3-((3-(trifluoromethyl)phenyl)sulfonyl)butyl)-2-(methylsulfonyl)-6-(trifluoromethyl)nicotinamide], the IC50 was determined as 1.56 µM.

`CC(C)(CCNC(=O)[C@H]1CCCCN1)S(=O)(=O)c1cccc(C(F)(F)F)c1` [Compound 195, (R)-N-(3-methyl-3-((3-(trifluoromethyl)phenyl)sulfonyl)butyl)piperidine-2-carboxamide]: the IC50 stood at 3.11 µM. As for `CC(C)(CNC(=O)c1ncc(C(F)(F)F)cc1S(C)(=O)=O)S(=O)(=O)c1cccc(C(F)(F)F)c1` [Compound 156, N-(2-methyl-2-((3-(trifluoromethyl)phenyl)sulfonyl)propyl)-3-(methylsulfonyl)-5-(trifluoromethyl)picolinamide], the IC50 stood at 1.08 µM. For `CC(C)(C(=O)NCC(O)c1ccccc1Cl)S(=O)(=O)c1cccc(C(F)(F)F)c1` (centres unmarked) [Compound 141, N-(2-(2-chlorophenyl)-2-hydroxyethyl)-2-methyl-2-((3-(trifluoromethyl)phenyl)sulfonyl)propanamide], the IC50 worked out at 1.09 µM. Consider `CC(C)(CNC(=O)c1cnccc1C(F)(F)F)S(=O)(=O)c1cccc(C(F)(F)F)c1` [Compound 174, N-(2-methyl-2-((3-(trifluoromethyl)phenyl)sulfonyl)propyl)-4-(trifluoromethyl)nicotinamide], for which the IC50 is 4.36 µM. For the molecule `CC(C)(C(=O)N1Cc2ccncc2C1)S(=O)(=O)c1cccc(C(F)(F)F)c1` [Compound 148, 2-methyl-1-(1H-pyrrolo[3,4-c]pyridin-2(3H)-yl)-2-((3-(trifluoromethyl)phenyl)sulfonyl)propan-1-one], the IC50 is 10 µM. As to `CC(C)(NC(=O)CC(C)(C)S(=O)(=O)c1cccc(C(F)(F)F)c1)c1ccccc1` [Compound 152, 3-methyl-N-(2-phenylpropan-2-yl)-3-((3-(trifluoromethyl)phenyl)sulfonyl)butanamide], the IC50 is 4.24 µM. Consider `CN1CCCCC1C(=O)NCCC(C)(C)S(=O)(=O)c1cccc(C(F)(F)F)c1` (centres unmarked) [Compound 221, 1-methyl-N-(3-methyl-3-((3-(trifluoromethyl)phenyl)sulfonyl)butyl)piperidine-2-carboxamide], for which the IC50 was 6.1 µM.
